Tests used:
[1] = test system: MC3T3-E1 cells; assay: XTT cell viability / cell proliferation assay; type: cell-based, mouse
Description: (§1) The mouse calvaria cells MC3T3-E1 cells (ATCC-CRL-2593; #99072810; Sigma) are cultivated in a-MEM (Gibco—Invitrogen, Darmstadt; Germany) containing 20% fetal calf serum (FCS; Gibco). In addition, the medium is supplemented with 2 mM L-glutamine, 1 mM Na-pyruvate and 50 μg/ml of gentamycin. […] After reaching 80% confluency, the cells are detached using trypsin/EDTA and then subcultured at a density of 5·10^3 cells/ml. The cells are seeded at a density of 5·10^3 cells/well. Medium/serum change is every 3 d.
(§2) Retinol is dissolved in ethanol (1 mg/ml) and then diluted in DMSO (dimethyl sulfoxide). Incubation is performed for 3 d.
Cell proliferation/cell viability can be determined by the colorimetric XTT method ([Na-3′[1-(phenylamino-carbonyl)-3,4-tetrazolium]-bis(4-methoxy-6-nitro) benzene sulfonic acid] using, for example, the “Cell Proliferation Kit II” (Roche). The absorbance is determined at […] and subtracted from the background values ([…]). In the experiments described in Examples, the viable cells have been determined after 72 h.

[2] = test system: leptin receptor; assay: RT-qPCR steady-state gene expression in MC3T3-E1 cells: leptin receptor; type: cell-based, Mus musculus; conditions: 3 d, GAPDH reference
Description: (§3) As indicated, the following polyP preparations are added to the cells; […], et al. […] Retinol is dissolved in ethanol (1 mg/ml) and then diluted in DMSO (dimethyl sulfoxide). Incubation is performed for 3 d. In the indicated experiments, circular fiber mat samples (diameter of 15 mm) are inserted into each 24-well of the plates and seeded with MC3T3-E1 cells at a density of 5·10^3 cells/well. Then the assays are incubated for 3 d and subjected to microscopic as well as polymerase chain reaction analyses. The gene expression levels can be determined by applying the technique of reverse transcription-quantitative real-time polymerase chain reaction (RT-qPCR). […] Then the cells are harvested, their RNA is isolated and subjected to RT-qPCR. In the experiments described under Examples, the following primer pairs, matching with the respective mouse genes, are used: Fatty acid binding protein 4 (Mus musculus; accession number […]299] (SEQ ID NO: 1) and Rev: […]392] (SEQ ID NO: 2); product size 135 bp; leptin (M. musculus; […]2911] (SEQ ID NO: 3) and Rev: […]3019] (SEQ ID NO: 4); size 153 bp; and leptin receptor, transcript variant 2 (M. musculus; […]2592] (SEQ ID NO: 5) and Rev: […]2686] (SEQ ID NO: 6); size 139 bp. The GAPDH [glyceraldehyde 3-phosphate dehydrogenase (Mus GAPDH; NM_008084) is used as reference gene […]220] (SEQ ID NO: 7) and Rev: [NT]338 to nt316; size 139 bp] (SEQ ID NO: 8).

[3] = test system: ALP gene; assay: qRT-PCR of ALP expression in hMSC differentiating towards odontoblasts; type: cell-based, human; conditions: 30 μg/mL, time not stated (1-7 d series), without polyP approximately 0.02
Description: The human multipotent stromal cells (hMSC) differentiate into odontoblasts in the presence of conditioned medium from developing tooth germ cells; the conditioned medium is prepared as described (Huo N, et al. (2010) Differentiation of dermal multipotent cells into odontogenic lineage induced by embryonic and neonatal tooth germ cell-conditioned medium. Stem Cells Dev 19:93-104). The description of the cultivation procedure for the hMSCs has been published (Wang X H, et al. (2014) The marine sponge-derived inorganic polymers, biosilica and polyphosphate, as morphogenetically active matrices/scaffolds for differentiation of human multipotent stromal cells: Potential application in 3D printing and distraction osteogenesis. Marine Drugs 12:1131-1147). The human cells can be obtained, after approval from the responsible ethics committee, from bone marrow aspirations after informed consent of the donors. Incubation was performed in a humidified incubator at 37° C. and 5% CO2. The sixth passage is used for the studies. The cells are incubated in α-MEM (Biochrom), supplemented with 20% fetal calf serum (FCS; Gibco Invitrogen) as well as with 100 units/mL penicillin and […] streptomycin. In addition, 5% of conditioned medium is added to the assays. […]

[4] = test system: fatty acid binding protein 4 (FABP4); assay: RT-qPCR steady-state gene expression in MC3T3-E1 cells: FABP4; type: cell-based, Mus musculus; conditions: 3 d, GAPDH reference
Description: as §3

[5] = test system: leptin; assay: RT-qPCR steady-state gene expression in MC3T3-E1 cells: leptin; type: cell-based, Mus musculus; conditions: 3 d, GAPDH reference
Description: as §3

[6] = test system: MC3T3-E1 cells; assay: Nile Blue A staining of cell monolayers; type: cell-based, mouse; conditions: 72 h, controls stained in blue
Description: as §1, §2
The MC3T3-E1 cells are stained with Nile Blue A (Basic Blue 12, Nile blue sulfate; Sigma N0766) as described (Nakanishi T, Kato S. Impact of diabetes mellitus on myocardial lipid deposition: an autopsy study. Pathol Res Pract 2014; 210: 1018-1025). This staining reagent highlights in histological samples neutral lipids (triglycerides, cholesteryl esters, steroids) in pink, while acids (fatty acids, chromolipids, phospholipids) are stained in blue.

[7] = In vitro incubation of teeth, polyP coating / dentinal tubule resealing (light microscopy, SEM); parameters: species or system human; conditions: 10 mg/mL; 2 d incubation
Description: In order to determine the efficacy of the aCa-polyP-MP to reseal the dentin layer and to check for the potency of the microparticles to occlude the dentinal tubules human teeth are used. Prior to use the teeth are mechanically cleaned from soft tissue, treated for 5 h in 3% Na-hypochlorite to remove tissue remains and then stored at 4° C. in a 100% relative humidity chamber.
Teeth specimens are submersed in saline (0.90% [w/v] NaCl) which contained, as mentioned in the text, either 10 mg/mL of aCa-polyP-MP or Na-polyP, stoichiometrically complexed with Ca^2+ (molar ratio of 2:1/phosphate monomer:Ca^2 [Müller W E G, et al. (2011) Inorganic polymeric phosphate/polyphosphate as an inducer of alkaline phosphatase and a modulator of intracellular Ca^2+ level in osteoblasts (SaOS-2 cells) in vitro. Acta Biomater 7:2661-2671]). Incubation is performed at 25° C. Then the samples are sliced by cutting 1-2 mm thick discs inwards to the pulp as described (Wang X H, et al. (2014) Enzyme-based biosilica and biocalcite: biomaterials for the future in regenerative medicine. Trends Biotechnol 32:441-447); where indicated, the dentin or enamel regions, as well as the cement layer, are included in the measurements. […]

Row | Compound | number of cells (XTT) ([1]; 72 h incubation, below a concentration of 3 μg/ml) | leptin receptor steady-state expression versus untreated control ([2]; 3 μg/ml, control set to 1) | ALP expression level, ratio to GAPDH [3] | FABP4 steady-state expression versus untreated control ([4]; 3 μg/ml, control set to 1) | leptin steady-state expression versus untreated control ([5]; 3 μg/ml, control set to 1) | Nile Blue A staining colour of cells ([6]; 3 μg/ml) | additional (polyP) layer on top of the cement, light microscopy [7] | surface texture / roughness of treated teeth, light microscopy [7] | cell growth (XTT) ([1]; retinol 3 μM as single component, 72 h) | leptin receptor steady-state expression versus untreated control ([2]; 3 μM retinol) | FABP4 steady-state expression versus untreated control ([4]; 3 μM retinol) | leptin steady-state expression versus untreated control ([5]; 3 μM retinol) | Nile Blue A staining colour of cells ([6]; 3 μM retinol)
1 | Na-polyphosphate | no effect on the number of cells | did not change significantly | 0.53±0.01 | did not change significantly | did not change significantly | highlight in light/bright pink | no additional layer was observed | coarse texture |  |  |  |  | 
2 | CC1=C(/C=C/C(C)=C/C=C/C(C)=C/CO)C(C)(C)CCC1 [retinol, all-trans retinol] |  |  |  |  |  |  |  |  | does not affect cell growth significantly | non-significant increase | non-significant increase | non-significant increase | highlight in light/bright pink

Reference: US20170319740A1, “Bioactive Wound Dressing and Teeth Coating Based on Morphogenetically Active Amorphous Calcium Polyphosphate” (NanotecMARIN GmbH, priority 2014, published 2017)
